# Results published in patent publication US9072766B2, “Methods of treating obesity by inhibiting nicotinamide N-methyl transferase (NNMT)” (Beth Israel Deaconess Medical Center, Inc., priority 2010, dated 2015).
# Legend:
# Assay type in all cases: cell-based
# 3T3-L1 adipocytes [1] = assay: Glucose uptake in 3T3-L1 adipocytes
# Method: 3T3-L1 were grown in Dulbecco's Modified Eagle's Medium (Gib-co/Invitrogen, Carlsbad, Calif., USA) with 4.5 g/l glucose and 10% fetal bovine serum. Differentiation was induced in two-day-postconfluent cells by supplementing the media with 1 μM insulin, 100 nM dexamethasone, and 500 μM isobutylmethylxanthine for 48 hours, followed by media supplemented with 1 μM insulin for another 48 hours, then normal media until differentiation day 10. Fully differentiated 3T3-L1 adipocytes (day 10) in 48-well plates were serum-starved for 1 hour before incubation with Krebs-Ringer-HEPES (KRH) buffer with or without 10 nM insulin for 30 minutes, followed by addition of 1 mM, 100 nCi [3H]-2-deoxyglucose for 10 minutes. Uptake was stopped by lysing the cells with 0.1% sodium dodecyl sulfate (SDS). Lysates were transferred to liquid scintillation cocktail (Fisher […] 50% Plus) and counted in a Beckman LS counter.
# 3T3-L1 adipocytes [2] = assay: Oxygen consumption of 3T3-L1 adipocytes
# Method: 3T3-L1 were grown in Dulbecco's Modified Eagle's Medium (Gib-co/Invitrogen, Carlsbad, Calif., USA) with 4.5 g/l glucose and 10% fetal bovine serum. Differentiation was induced in two-day-postconfluent cells by supplementing the media with 1 μM insulin, 100 nM dexamethasone, and 500 μM isobutylmethylxanthine for 48 hours, followed by media supplemented with 1 μM insulin for another 48 hours, then normal media until differentiation day 10. Oxygen consumption was measured with a Rank Brothers oxygen electrode (Rank Brothers Ltd., Cambridge, UK). Cultured cells were trypsinized, counted in a hemocytometer, spun down, and resuspended in respiration buffer (PBS, 2% BSA, 4.5 g/l glucose, 120 mg/l sodium pyruvate) to 1E6/ml. Partial oxygen pressure was recorded using a Rank Brothers digital model 10 and a PowerLab 4/30 data acquisition system (ADInstruments, Colorado Springs, Colo.).
# 3T3-L1 adipocytes [3] = assay: Lipolysis in 3T3-L1 adipocytes (glycerol release); details: cultured 3T3-L1 adipocytes (FIG. 13A)
# Method: 3T3-L1 were grown in Dulbecco's Modified Eagle's Medium (Gib-co/Invitrogen, Carlsbad, Calif., USA) with 4.5 g/l glucose and 10% fetal bovine serum. Differentiation was induced in two-day-postconfluent cells by supplementing the media with 1 μM insulin, 100 nM dexamethasone, and 500 μM isobutylmethylxanthine for 48 hours, followed by media supplemented with 1 μM insulin for another 48 hours, then normal media until differentiation day 10.
# Fully differentiated 3T3-L1 adipocytes (day 10) in 48-well plates were washed, and 100 μl of KRH buffer with 3% BSA and 4 g/l D-glucose with or without 100 nM isoproterenol was added to each well. After 1 hour at 37° C./5% CO2 a 50 μl aliquot from each well was transferred to a 96-well plate; 50 μl of lipolysis assay buffer (Cayman Chemical) were added, and the plate was incubated at room temperature, protected from light, for 30 min. Absorption was measured at 540 nm. A standard curve was included on each plate to allow calculation of the glycerol concentration in the supernatants.
compound,measurement,setting,value
CNC(=O)c1cccnc1 [N-methylnicotinamide],insulin-dependent glucose uptake,3T3-L1 adipocytes [1]; 3T3-L1 adipocytes (FIG. 13B),stimulated
same,basal glucose uptake,3T3-L1 adipocytes [1]; no insulin (FIG. 15B),stimulated
same,submaximally insulin-induced glucose uptake,3T3-L1 adipocytes [1]; submax insulin (FIG. 15C),stimulated
same,"glucose uptake, co-administration with DFMO relative to DFMO alone",3T3-L1 adipocytes [1]; submax insulin stimulation (FIG. 15C),increase
same,oxygen consumption in differentiated 3T3-L1 adipocytes,3T3-L1 adipocytes [2]; FIG. 12C,increased
same,oxygen consumption (FIG. 15A),"3T3-L1 adipocytes [2]; text: cultured hepatoma cells, legend: 3T3-L1 adipocytes",stimulated
same,lipolysis (glycerol released into the culture supernatant),3T3-L1 adipocytes [3],increased
